Publication PMC6934184, “Selective DNA-PKcs inhibition extends the therapeutic index of localized radiotherapy and chemotherapy” (The Journal of Clinical Investigation, 2019)

Biological target: T1, DDR2 N456S (Homo sapiens, UniProt Q16832, N456S)
T1 construct: purchased Thermo Fisher Scientific (Life Technologies) SelectScreen
Assay: SelectScreen LanthaScreen
Type: binding
Conditions: read-out: % displacement
How it was run: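 Percent values come from Thermo SelectScreen profiling of NU5455, combining activity and binding assays. CSF1R was run in Z'LYTE format at Km app ATP, and CAMK1 in Adapta format with ATP listed at 10.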

T1 sequence (Q16832 22-855 N456S): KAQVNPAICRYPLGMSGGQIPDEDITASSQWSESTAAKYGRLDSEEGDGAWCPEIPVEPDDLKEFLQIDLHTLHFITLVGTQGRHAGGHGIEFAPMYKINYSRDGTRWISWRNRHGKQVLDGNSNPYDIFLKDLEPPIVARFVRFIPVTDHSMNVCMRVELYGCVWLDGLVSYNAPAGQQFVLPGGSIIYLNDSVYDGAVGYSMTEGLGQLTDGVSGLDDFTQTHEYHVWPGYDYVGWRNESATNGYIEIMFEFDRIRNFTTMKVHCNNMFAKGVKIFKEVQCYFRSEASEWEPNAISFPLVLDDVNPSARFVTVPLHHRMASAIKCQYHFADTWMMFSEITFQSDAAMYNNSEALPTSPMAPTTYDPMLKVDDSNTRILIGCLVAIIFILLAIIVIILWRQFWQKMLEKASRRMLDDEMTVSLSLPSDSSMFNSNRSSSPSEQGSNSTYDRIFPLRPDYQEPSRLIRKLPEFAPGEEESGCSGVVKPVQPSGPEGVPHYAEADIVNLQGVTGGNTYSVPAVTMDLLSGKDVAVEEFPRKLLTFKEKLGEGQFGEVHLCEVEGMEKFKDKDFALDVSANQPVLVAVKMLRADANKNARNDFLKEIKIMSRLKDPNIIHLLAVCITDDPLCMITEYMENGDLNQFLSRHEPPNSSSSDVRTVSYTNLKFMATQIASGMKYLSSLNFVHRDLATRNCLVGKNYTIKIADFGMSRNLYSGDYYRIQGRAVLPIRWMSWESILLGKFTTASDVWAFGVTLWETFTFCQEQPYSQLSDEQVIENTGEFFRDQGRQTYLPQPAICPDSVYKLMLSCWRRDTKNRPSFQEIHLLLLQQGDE

Work on `CN(C(=O)CN1CCOCC1)c1ccc2sc3c(-c4cccc5c(=O)cc(N6CC7CCC(C6)O7)oc45)cccc3c2c1` [NU5455] yielded an inhibition at 1 µM of 0.5%.
